From ChEMBL document CHEMBL4840333, “Ulleunganilines A-C, Trichostatin Analogues Bearing a Modified Side Chain from Streptomyces sp. 13F051” (J Nat Prod, 2021) come the findings set out here.

Each structure is given as a SMILES string. Calls of active or inactive are those of the source. The rule behind the calls is not given here. Some results are limits rather than exact numbers.

Broadly, the IC50 is the concentration that gives 50% inhibition.

One experiment concerns the target Histone deacetylase. In words: Inhibition of HDAC in human HeLa nuclear extract using Fluor de Lys as substrate incubated for 20 mins by fluorometric assay. The experiment is classed as subcellular, Nucleus.
The next experiment concerns HeLa. In words: Cytotoxicity against human HeLa cells assessed as reduction in cell viability incubated for 72 hrs by EZ-Cytox colorimetric assay. The format is functional, cell-based.
Another experiment deals with A549. Kind of experiment: Cytotoxicity against human A549 cells assessed as reduction in cell viability incubated for 72 hrs by EZ-Cytox colorimetric assay. The experiment is classed as functional, cell-based. Particulars: for IC50: A549, 72 h.
A further experiment concerns MDA-MB-231. Kind of experiment: Cytotoxicity against human MDA-MB-231 cells assessed as reduction in cell viability incubated for 72 hrs by EZ-Cytox colorimetric assay. The note with it: for IC50: MDA-MB-231, 72 h. The format is functional, cell-based.
The subject of the next experiment is SW480. In words: Cytotoxicity against human SW480 cells assessed as reduction in cell viability incubated for 72 hrs by EZ-Cytox colorimetric assay. The format is functional, cell-based. Particulars: for IC50: SW480, 72 h.
The next experiment relates to U2OS. In words: Cytotoxicity against human U2OS cells assessed as reduction in cell viability incubated for 72 hrs by EZ-Cytox colorimetric assay. The format is functional, cell-based.

As to `CC(/C=C/C(=O)N[C@@H](CCC(N)=O)C(=O)O)=C\[C@@H](C)C(=O)c1ccc(N(C)C)cc1`, the IC50 against Histone deacetylase was > 100 µM.

Turning to `CC(/C=C/C(=O)Nc1ccc(C(=O)N[C@@H](CCC(N)=O)C(=O)O)cc1)=C\[C@@H](C)C(=O)c1ccc(N(C)C)cc1`, the IC50 was > 100 µM with HeLa; > 100 µM in the experiment on A549; > 100 µM with MDA-MB-231; > 100 µM with SW480; > 100 µM in the experiment with U2OS; 19.96 µM at Histone deacetylase.

As to `CC(/C=C/C(N)=O)=C\[C@@H](C)C(=O)c1ccc(N(C)C)cc1`, on Histone deacetylase, the IC50 was > 100 µM.

For `C[C@H](C[C@@H](C)C(=O)c1ccc(N(C)C)cc1)C(=O)O`, the IC50 in the experiment with HeLa was > 100 µM; with A549 it was > 100 µM; in the experiment with MDA-MB-231, > 100 µM; in the experiment with SW480, > 100 µM; with U2OS, > 100 µM; on Histone deacetylase it was 39.67 µM.

As for `CC(/C=C/C(=O)O)=C\[C@@H](C)C(=O)c1ccc(N(C)C)cc1` [TRICHOSTATIC ACID], the 50% inhibitory concentration (IC50) against Histone deacetylase came to 95.13 µM.

Consider `CC(/C=C/C(=O)NO[C@@H]1O[C@H](CO)[C@@H](O)[C@H](O)[C@H]1O)=C\[C@@H](C)C(=O)c1ccc(N(C)C)cc1`, for which the values for the IC50 in the experiment on SW480, in the experiment on U2OS and on Histone deacetylase were 72 µM, 94.9 µM and 23.63 µM, respectively.

As to `CC(/C=C/C(=O)NO)=C\[C@@H](C)C(=O)c1ccc(N(C)C)cc1`, the result in the experiment with HeLa, in the experiment with A549, in the experiment with MDA-MB-231, in the experiment with SW480 and in the experiment on U2OS was Active.

For `CNC(=O)/C=C/C(C)=C/[C@@H](C)C(=O)c1ccc(N(C)C)cc1`, the concentration for half-maximal inhibition (IC50) at Histone deacetylase is > 100 µM.

Consider `CC(/C=C/C(=O)N[C@@H](CCC(=O)O)C(=O)O)=C\[C@@H](C)C(=O)c1ccc(N(C)C)cc1`, for which, at Histone deacetylase, the IC50 is > 100 µM.

As to `CNc1ccc(C(=O)[C@H](C)C[C@@H](C)C(=O)O)cc1`, the IC50 in the experiment on HeLa, with A549, in the experiment with MDA-MB-231, in the experiment on SW480, in the experiment on U2OS and against Histone deacetylase was > 100 µM in each case.
